According to patent US20250312326A1, “PHARMACEUTICAL COMPOSITION OF ANTIPLATELET DRUG, AND USE THEREOF” (SHANGHAI CUREGENE PHARMACEUTICAL CO., LTD., priority 2022, published 2025):

How the values were obtained:
[1] = Pharmacokinetic in rats: thiol active metabolite in plasma; type: in vivo, Male Sprague-Dawley rats; details: rat plasma, oral, 10 mg/kg
Method: Male Sprague-Dawley rats were used to conduct pharmacokinetic experiment.
Test compounds (clopidogrel and exemplary compounds provided herein) was administrated orally or intravenously to rat under fast condition. Blood samples were collected via jugular vein at 5 min, 15 min, 30 min, 60 min and 120 min time points with EDTA-K2 (anticoagulant), 3′-methoxyphenacyl bromide (MPBr, derivatization reagent) and phenylmethylsulfonyl fluoride (PMSF, stabilizer). Plasma samples were then harvested by centrifuging at 1500 g for 10 min under 2˜8° C. and stored at −80° C. after separation. Plasma samples were loaded to a LC-MS/MS instrument after extraction to determine the concentration of the thiol active metabolite.

[2] = test system: platelet aggregation; experiment: Antiaggregatory action in rats (ex vivo ADP-induced platelet aggregation); design: species or system Male Sprague-Dawley rats; details: rat, oral
Method: Male Sprague-Dawley rats were used for ex vivo platelet aggregation experiments. […] The number of platelets in PRP was measured by hematology analyzer (Siemens, ADVIA2120), and adjusted to 4×10^8/mL with PPP. Platelet aggregation was determined using turbidimetric aggregometry method by an automatic platelet aggregometer ([…]). The aggregometer was primarily warmed up to 37° C., and PRP (290 μL) sample was added to the cuvette and set in the automatic platelet aggregometer. […] Antiaggregatory action of test compounds was expressed as inhibition (%) which determined by the relation: […]

[3] = human body; cited from earlier work
[4] = loading dose 300-600 mg; cited from earlier work

For `CCOC(=O)/C=C1\CN([C@H](C(=O)OC)c2ccccc2Cl)CCC1SCOC(=O)OC(C)C` (stereo partly shown) [Compound 2a], the “peak concentration of the thiol active metabolite compared with clopidogrel” value (“peak concentration … compared with clopidogrel” below) [1] was “significantly higher”.
In the case of `COC(=O)[C@H](c1ccccc1Cl)N1CCc2sccc2C1` [clopidogrel, Clopidogrel], the inhibition at 10 mg/kg ([2]; Platelet, 10 mg/kg, ADP 10 μM, read-out: maximum inhibition of platelet aggregation) is listed as about 45%, the “time to maximum inhibition of platelet aggregation” value ([2]; 10 mg/kg) is listed as “about 120 minutes” and the “fraction producing inactive metabolites through non-oxidative hydrolysis” value [3] is listed as “about 85%”. For the same compound, the “fraction undergoing two-step oxidation (cytochrome P450, mainly CYP2C19) to active metabolite H4” value [3] was “about 15%” and the “onset of therapeutic effect after loading dose administration” value [4] was 2 h.
For `COC(=O)[C@H](c1ccccc1Cl)N1CCC(SCOC(=O)OC(C)C)/C(=C/C(=O)O)C1` (stereo partly shown) [Compound 1a], the “peak concentration … compared with clopidogrel” value [1] was “significantly higher”.
With `COC(=O)[C@H](c1ccccc1Cl)N1CCC(SCOC(=O)OC(C)C)/C(=C\C(=O)O)C1` (stereo partly shown) [Compound 1b] the “peak concentration … compared with clopidogrel” value [1] was “significantly higher”, the inhibition at 2 mg/kg ([2]; Platelet, 2 mg/kg, ADP 10 μM, read-out: maximum inhibition of platelet aggregation) was about 45% and the “time to maximum inhibition of platelet aggregation” value ([2]; 2 mg/kg) was 60 min.
